Test results reported in patent publication US9492418B2, “Inhibitors of PFKFB3 for cancer therapy” (Board of Supervisors of Louisiana State University And …, priority 2011, dated 2016).

How the values were obtained:
human PFKFB3 [1] = target: T1, human PFKFB3 (Homo sapiens, UniProt Q16875); test: 2-Kase assay and kinetic analysis (enzyme-coupled Fru-2,6-BP assay); assay type: biochemical; parameters: 443 amino acid residues of the full-length protein of 520 residues; 6xHis; made in house; host or cells: Escherichia coli BL21(DE3) pLysS; conditions: for Inhibition (type): versus Fru-6-P
T1 sequence (Q16875 whole entry): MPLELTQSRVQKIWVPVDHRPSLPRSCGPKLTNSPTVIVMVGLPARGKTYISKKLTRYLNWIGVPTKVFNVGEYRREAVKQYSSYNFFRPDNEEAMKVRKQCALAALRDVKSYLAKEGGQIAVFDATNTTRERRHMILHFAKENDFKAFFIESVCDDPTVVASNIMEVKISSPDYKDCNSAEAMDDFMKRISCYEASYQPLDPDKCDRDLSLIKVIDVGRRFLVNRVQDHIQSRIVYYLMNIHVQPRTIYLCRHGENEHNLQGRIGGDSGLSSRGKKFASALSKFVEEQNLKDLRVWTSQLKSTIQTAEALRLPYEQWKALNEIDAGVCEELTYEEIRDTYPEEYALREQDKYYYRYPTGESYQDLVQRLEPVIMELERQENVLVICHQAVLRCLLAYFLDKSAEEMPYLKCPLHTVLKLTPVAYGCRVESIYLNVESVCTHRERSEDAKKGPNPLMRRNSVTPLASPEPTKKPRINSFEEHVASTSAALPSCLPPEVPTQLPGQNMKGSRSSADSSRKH
Description: To determine steady-state initial reaction rates, the 2-Kase reactions were performed first and the Fru-2,6-BP produced was measured by a conventional enzyme-coupled kinetics assay as described previously. The compounds, N4A and RBC2 came from the National Cancer Institute as indicated in Example 1. […] Initial rates of decrease in absorbance (Abs) at 340 nm were corrected with the rate of the control reaction in which no Fru-2,6-BP was present. Negative controls were carried out in the absence of enzyme and positive controls indicate the reaction in the presence of enzyme without inhibitor compounds. […] IC50 values were determined in quadruplicate. For the kinetic studies, concentrations of one of substrate and inhibitor were varied, and decrease in absorbance at 340 nm was measured. The inhibition patterns were analyzed using the program written by Cleland, in which Ki is the dissociation constants for the inhibitor from enzyme-inhibitor complex. For Selectivity studies, the 2-Kase assays were performed first and the F-2,6-P2 produced was measured by an enzyme coupled kinetics assay as described above. The His6-tagged PFKFB isoforms, PFKFB1, PFKFB2, and PFKFB4 were expressed in Escherichia coli C41(DE3) and purified using Ni-NTA affinity columns.

HeLa and T47D cells = test: Cell growth inhibition (XTT or trypan blue); assay type: cell-based, human; conditions: for cell survival compared to unexposed cells: 25 μM
Description: (§1) HeLa and T47D cell lines were cultured in a 10% CO2 humidified atmosphere at 37° C. as exponentially growing monolayers in Dulbecco's modified Eagle's medium (DMEM) with glutamax (Invitrogen), supplemented with 10% fetal calf serum (Invitrogen) and penicillin/streptomycin (100 U/ml and 100 μg/ml). The human cervical carcinoma cell line, HeLa, was kindly provided by Dr. J. Kim (Louisiana State University) and the human breast carcinoma cell line, T47D, was obtained from the American Type Culture Collection (Manassas, Va.).
Cell growth inhibition was determined by an XTT-based in-vitro toxicology assay (Sigma-Aldrich) or trypan blue staining. Cells were plated at a density of 3.5×10^4 per well in a 24-well plate in DMEM containing 10% FCS. These cells were allowed to attach for 24 hours, and the media were replaced with fresh media containing either vehicle (dimethyl sulfoxide) or appropriate concentrations of test compounds. After 36 hours of incubation with either vehicle or compounds, cells were trypsinized and cell viability was determined by the trypan blue exclusion assay using a hemacytometer. For the XTT assay, cells were seeded into 96-well cell culture plates at a density of 0.6×10^4 per well. After the appropriate treatment described above, cells were incubated with 0.1 mg/ml of 2,3-bis(2-methoxy-4-nitro-5-sulfophenyl)-5-[(phenylamino)carbonyl]-2H-tetrazolium hydroxide (XTT) for 4 hours, and then cell number was determined by the absorbance at 470 nm, which is proportional to the number of cells that remained attached to the plate. GI50s were calculated as the inhibitor concentration needed for 50% of vehicle-treated cell growth. The appearance of apoptotic or necrotic cells was determined by flow cytometric analysis of cells double stained with Annexin V-FITC and propidium iodide (PI). […] The fluorescence of samples were analyzed by flow cytometry (FACSCalibur®, Becton Dickinson Immunocytometry, San Jose, Calif.) using the CellQuest (BD Bioscience, Immunocytometry Systems, San Jose, Calif., USA) software.

PFKFB4 = target: T2, PFKFB4 (Homo sapiens, UniProt Q16877); test: 2-Kase selectivity assay on PFKFB isoforms; assay type: biochemical; conditions: at twice the IC50 for PFKFB3 (N4A=6 μM, YN1=1.3 μM)
T2 construct: His6; made in house; host or cells: Escherichia coli C41(DE3)
T2 sequence (Q16877 whole entry, canonical isoform): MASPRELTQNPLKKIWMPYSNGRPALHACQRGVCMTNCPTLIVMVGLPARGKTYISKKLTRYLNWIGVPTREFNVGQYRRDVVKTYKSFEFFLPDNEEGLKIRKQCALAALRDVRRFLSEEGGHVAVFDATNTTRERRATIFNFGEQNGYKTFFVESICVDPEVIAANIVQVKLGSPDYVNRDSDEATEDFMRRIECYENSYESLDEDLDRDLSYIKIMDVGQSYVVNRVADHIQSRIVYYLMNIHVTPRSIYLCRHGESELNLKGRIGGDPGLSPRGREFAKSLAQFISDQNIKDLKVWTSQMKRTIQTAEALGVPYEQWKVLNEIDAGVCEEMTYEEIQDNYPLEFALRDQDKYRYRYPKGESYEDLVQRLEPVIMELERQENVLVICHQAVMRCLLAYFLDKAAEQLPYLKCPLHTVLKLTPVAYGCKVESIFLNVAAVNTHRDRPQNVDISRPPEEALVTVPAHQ
Description: (§2) To determine steady-state initial reaction rates, the 2-Kase reactions were performed first and the Fru-2,6-BP produced was measured by a conventional enzyme-coupled kinetics assay as described previously. The compounds, N4A and RBC2 came from the National Cancer Institute as indicated in Example 1. […] Initial rates of decrease in absorbance (Abs) at 340 nm were corrected with the rate of the control reaction in which no Fru-2,6-BP was present. Negative controls were carried out in the absence of enzyme and positive controls indicate the reaction in the presence of enzyme without inhibitor compounds. The percentage of Inhibitory activity was calculated according to the formula: % inhibition=100×[1−(Absnegative control−Abscompound)/(Absnegative control−Abspositive control)]. IC50 values were determined in quadruplicate. For the kinetic studies, concentrations of one of substrate and inhibitor were varied, and decrease in absorbance at 340 nm was measured. The inhibition patterns were analyzed using the program written by Cleland, in which Ki is the dissociation constants for the inhibitor from enzyme-inhibitor complex. For Selectivity studies, the 2-Kase assays were performed first and the F-2,6-P2 produced was measured by an enzyme coupled kinetics assay as described above. The His6-tagged PFKFB isoforms, PFKFB1, PFKFB2, and PFKFB4 were expressed in Escherichia coli C41(DE3) and purified using Ni-NTA affinity columns.

PFKFB2 = target: T3, PFKFB2 (Homo sapiens, UniProt O60825); test: 2-Kase selectivity assay on PFKFB isoforms; assay type: biochemical; conditions: at twice the IC50 for PFKFB3 (N4A=6 μM, YN1=1.3 μM)
T3 construct: His6; made in house; host or cells: Escherichia coli C41(DE3)
T3 sequence (O60825 whole entry, canonical isoform): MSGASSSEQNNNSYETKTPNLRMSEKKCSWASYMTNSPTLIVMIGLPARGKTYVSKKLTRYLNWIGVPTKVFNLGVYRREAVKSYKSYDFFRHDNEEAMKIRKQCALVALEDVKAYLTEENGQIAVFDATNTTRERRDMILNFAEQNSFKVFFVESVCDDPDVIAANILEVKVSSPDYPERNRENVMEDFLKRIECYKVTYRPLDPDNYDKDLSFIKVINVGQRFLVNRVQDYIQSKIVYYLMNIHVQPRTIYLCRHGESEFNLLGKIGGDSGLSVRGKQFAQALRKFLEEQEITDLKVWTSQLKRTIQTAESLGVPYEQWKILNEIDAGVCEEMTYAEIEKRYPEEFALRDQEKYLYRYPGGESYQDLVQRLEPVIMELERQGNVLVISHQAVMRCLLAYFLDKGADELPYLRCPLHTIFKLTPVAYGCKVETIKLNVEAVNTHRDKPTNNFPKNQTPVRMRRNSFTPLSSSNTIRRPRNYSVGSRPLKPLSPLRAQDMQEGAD
Description: as §2

PFKFB1 = target: T4, PFKFB1 (Homo sapiens, UniProt P16118); test: 2-Kase selectivity assay on PFKFB isoforms; assay type: biochemical; conditions: at twice the IC50 for PFKFB3 (N4A=6 μM, YN1=1.3 μM)
T4 construct: His6; made in house; host or cells: Escherichia coli C41(DE3)
T4 sequence (P16118 whole entry, canonical isoform): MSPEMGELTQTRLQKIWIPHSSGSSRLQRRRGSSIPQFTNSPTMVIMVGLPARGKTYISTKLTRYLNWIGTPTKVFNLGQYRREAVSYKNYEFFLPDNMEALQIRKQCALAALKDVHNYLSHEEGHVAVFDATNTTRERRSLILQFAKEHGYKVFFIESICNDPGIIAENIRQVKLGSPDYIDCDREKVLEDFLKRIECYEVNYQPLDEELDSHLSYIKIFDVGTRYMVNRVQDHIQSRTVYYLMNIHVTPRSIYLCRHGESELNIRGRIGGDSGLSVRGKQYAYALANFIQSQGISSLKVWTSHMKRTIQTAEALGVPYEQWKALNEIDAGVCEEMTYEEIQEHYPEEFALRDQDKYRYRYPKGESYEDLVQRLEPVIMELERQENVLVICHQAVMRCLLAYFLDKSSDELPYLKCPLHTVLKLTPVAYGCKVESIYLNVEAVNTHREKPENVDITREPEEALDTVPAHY
Description: as §2

HeLa cells [2] = test: Flow-cytometric analysis of cell death (Annexin V-FITC / PI); assay type: cell-based, human
Description: Cell growth inhibition was determined by an XTT-based in-vitro toxicology assay (Sigma-Aldrich) or trypan blue staining. Cells were plated at a density of 3.5×10^4 per well in a 24-well plate in DMEM containing 10% FCS. These cells were allowed to attach for 24 hours, and the media were replaced with fresh media containing either vehicle (dimethyl sulfoxide) or appropriate concentrations of test compounds. After 36 hours of incubation with either vehicle or compounds, cells were trypsinized and cell viability was determined by the trypan blue exclusion assay using a hemacytometer. For the XTT assay, cells were seeded into 96-well cell culture plates at a density of 0.6×10^4 per well. After the appropriate treatment described above, cells were incubated with 0.1 mg/ml of 2,3-bis(2-methoxy-4-nitro-5-sulfophenyl)-5-[(phenylamino)carbonyl]-2H-tetrazolium hydroxide (XTT) for 4 hours, and then cell number was determined by the absorbance at 470 nm, which is proportional to the number of cells that remained attached to the plate. GI50s were calculated as the inhibitor concentration needed for 50% of vehicle-treated cell growth. The appearance of apoptotic or necrotic cells was determined by flow cytometric analysis of cells double stained with Annexin V-FITC and propidium iodide (PI). Apoptotic and necrotic cells were distinguished on the basis of double-labeling for Annexin V-FITC (Sigma-Aldrich) and PI, a membrane-impermeable DNA stain. Floating and freshly trypsinized cells were pooled, washed twice in binding buffer, and processed following manufacturer's instructions. The fluorescence of samples were analyzed by flow cytometry (FACSCalibur®, Becton Dickinson Immunocytometry, San Jose, Calif.) using the CellQuest (BD Bioscience, Immunocytometry Systems, San Jose, Calif., USA) software.

HeLa cells [3] = test: Soft agar colony formation; assay type: cell-based, human
Description: HeLa cell colony formation was determined by soft agar assay. Cells (2×10^3) were mixed in DMEM medium containing 0.35% agarose and varying concentrations of N4A or YN1. Then the cell mixture was added on a layer of 0.6% concentration of bottom agar in 24 well plate and allowed to grow for three weeks at 37° C. under 5% CO2. Fresh medium containing the inhibitors or vehicle (DMSO) was changed every four days. Colonies of 50 cells or more were counted after three weeks. The experiments were repeated at least five times.

HeLa cells [4] = test: Cellular Fru-2,6-BP level determination; assay type: cell-based, human; conditions: 25 μM, 8 hour exposure
Description: HeLa cells were plated at a density of 2.5×10^5 in a 6-well plate in DMEM containing 10% FCS. The media were replaced with fresh DMEM containing either vehicle (dimethyl sulfoxide) or 25 μM of inhibitor the following day. After 0, 4, 8, 12, 24, or 48 hours of incubation with each inhibitor, media samples were collected for measuring the lactate secretion levels using a lactate oxidase-based assay kit (Sigma-Aldrich), and the lactate concentration was normalized to the total cellular protein concentration. The Fru-2,6-BP level was determined with collected cells at times of 0, 4, 8, 12, 24, or 48 hours after the treatment, using the method described previously.

T47D = test: Cell growth inhibition; assay type: cell-based; conditions: Homo sapiens
Description: as §1
Cell growth inhibition was determined by an XTT-based in-vitro toxicology assay (Sigma-Aldrich) or trypan blue staining. […] After 36 hours of incubation with either vehicle or compounds, cells were trypsinized and cell viability was determined by the trypan blue exclusion assay using a hemacytometer. […] After the appropriate treatment described above, cells were incubated with 0.1 mg/ml of 2,3-bis(2-methoxy-4-nitro-5-sulfophenyl)-5-[(phenylamino)carbonyl]-2H-tetrazolium hydroxide (XTT) for 4 hours, and then cell number was determined by the absorbance at 470 nm, which is proportional to the number of cells that remained attached to the plate. […] The appearance of apoptotic or necrotic cells was determined by flow cytometric analysis of cells double stained with Annexin V-FITC and propidium iodide (PI). […]

human PFKFB3 [5] = target: T1, human PFKFB3; test: Biochemical throughput screening of NCI Diversity Set II and steady-state inhibition kinetics; parameters: 443 amino acid residues of the full-length protein of 520 residues; 6xHis; made in house; conditions: against F-6-P and ATP
Description: To generate a framework of actives and non-actives for virtual screening, a throughput study of 1,364 NCI compounds was carried out. The inhibition extent of 10 μM of each compound, in substrate saturation conditions, was quantified and the results of the top 50 compounds are shown in FIG. 1. An arbitrary cutoff was chosen at 75% inhibition to describe compounds that were to be considered ‘potential’ actives. Based on this cutoff, 10 compounds were identified from the original 1,364.
To select the true positives, the 10 potential actives were subsequently tested for specificity for the F-6-P site, because the virtual screening was targeted for the F-6-P site. Using conventional steady state inhibition kinetics, 6 compounds were selected as the ‘true actives’ (T-actives), and these six compounds are shown in FIG. 3.
The recombinant human PFKFB3 was expressed and purified as previously described.[20] The 1,364 individual compounds of NCI's Diversity Set II were acquired from the NCI.
The 2-kinase activity assay for throughput screening was performed using a F-2,6-P2 assay modified for 96-well plates from the conventional method.[21] […] The reactions of seconds step were started by adding 0.5 mM sodium pyrophosphate (PPi) and were then measured for changes in absorbance at 340 nm over a period of 30 minutes. […]

MCF7 = test: Cell growth inhibition; assay type: cell-based; conditions: Homo sapiens
Description: Cell growth inhibition was determined by an XTT-based in-vitro toxicology assay (Sigma-Aldrich) or trypan blue staining. Cells were plated at a density of 3.5×10^4 per well in a 24-well plate in DMEM containing 10% FCS. These cells were allowed to attach for 24 hours, and the media were replaced with fresh media containing either vehicle (dimethyl sulfoxide) or appropriate concentrations of test compounds. After 36 hours of incubation with either vehicle or compounds, cells were trypsinized and cell viability was determined by the trypan blue exclusion assay using a hemacytometer. For the XTT assay, cells were seeded into 96-well cell culture plates at a density of 0.6×10^4 per well. After the appropriate treatment described above, cells were incubated with 0.1 mg/ml of 2,3-bis(2-methoxy-4-nitro-5-sulfophenyl)-5-[(phenylamino)carbonyl]-2H-tetrazolium hydroxide (XTT) for 4 hours, and then cell number was determined by the absorbance at 470 nm, which is proportional to the number of cells that remained attached to the plate. GI50s were calculated as the inhibitor concentration needed for 50% of vehicle-treated cell growth. The appearance of apoptotic or necrotic cells was determined by flow cytometric analysis of cells double stained with Annexin V-FITC and propidium iodide (PI). […]

SMILES	inhibition at 10 µM (human PFKFB3 [1]; 10 μM, substrate-saturating conditions, not affected by 0.1% Tween-20)	IC50 (human PFKFB3 [1]; PFKFB3 2-kinase activity)	Ki (human PFKFB3 [1]; competitive against Fru-6-P)	Inhibition (type) (human PFKFB3 [1])	cell survival compared to unexposed cells (HeLa and T47D cells)	percent inhibition of PFKFB4 (PFKFB4)	percent inhibition of PFKFB2 (PFKFB2)	percent inhibition of PFKFB1 (PFKFB1)	type of cell death at low concentration (HeLa cells [2]; 25 μM)	type of cell death induced (HeLa cells [2]; 25 μM and 50 μM)	type of cell death at higher concentration (HeLa cells [2]; 50 μM)	inhibition at 25 µM (HeLa cells [3]; Homo sapiens, 504 h, soft agar, 25 μM, 3 weeks, read-out: colony formation inhibited)	effect on colony formation (HeLa cells [3]; soft agar, 25, 50 and 100 μM)	reduction of Fru-2,6-BP (ratio to control) (HeLa cells [4])	GI50 (T47D)	inhibition pattern (human PFKFB3 [5])	GI50 (MCF7)	GI50 (HeLa and T47D cells; Homo sapiens, 36 h, cell line not stated in Table 1 (HeLa and T47D tested))
O=c1cc(-c2ccc(O)cc2)oc2c(O)c(O)c(O)c(O)c12 [Compound N4A, 5,6,7,8-tetrahydroxy-2-(4-hydroxyphenyl)chromene-4-one]	> 65%	2970 ± 160 nM	1290 ± 260 nM	competitive inhibitor against Fru-6-P	significant reduction in cell survival	less than 50%	less than 50%	less than 50%	cells were found to be prone to apoptosis	induced both apoptotic and necrotic cell death	death by necrosis was significantly increased	64%	significantly inhibited colony formation	approximately 20%	–	–	–	–
CCOC(=O)C=C(C)Sc1cc(O)c2ccccc2c1O (stereo in doubt) [RBC2, (Z)-ethyl 3-((1,4-dihydroxynaphthalen-2-yl)thio)but-2-enoate]	–	–	–	Competitive	–	–	–	–	–	–	–	–	–	–	3500 nM	competitive inhibition	4400 nM	–
CCOC(=O)c1cc2ccc(O)cc2oc1=O [YZ9, ethyl 7-hydroxy-2-oxochromene-3-carboxylate]	–	–	–	–	significant reduction in cell survival	–	–	–	–	–	–	–	–	–	–	–	–	2700 nM
